Laboratory results as given in patent US20240270762A1, “PENICILLIN-BINDING PROTEIN INHIBITORS” (priority 2021, published 2024).
In brackets after ≈: the same amount, converted by molar mass. Like-named read-outs stand apart in the source and are kept apart here.

What was measured:
[1] = target: T1, PBP3 from Escherichia coli (K-12) (Escherichia coli, UniProt P0AD68); assay: Bocillin-FL fluorescence polarization competition binding, E. coli PBP3
T1 construct: made in house
Outline: (§1)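 Purified PBP was preincubated with inhibitor (E. coli PBP3 1.5 μM, 30 min; P. aeruginosa PBP3 0.75 μM, A. baumannii PBP3 0.2 μM and PBP1a 1 μM, 15 min), then Bocillin-FL (0.1 μM; 0.05 μM for PBP1a) added and FP read up to 60 min. EC50 = 50% loss of bound probe.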

[2] = target: T2, PBP3 from Pseudomonas aeruginosa (PAO1) (Pseudomonas aeruginosa, UniProt G3XD46); assay: Bocillin-FL fluorescence polarization competition binding, P. aeruginosa PBP3; details: Binding affinity to P. aeruginosa PBP3; fluorescence polarization competition binding assay using Bocillin-FL; read-out: P. aeruginosa PBP3 Potency
T2 construct: made in house
Outline: as §1

[3] = test system: N. gonorrhoeae WHO L; assay: Liquid broth MIC in Fastidious broth; details: Neisseria gonorrhoeae
[4] = test system: A. baumannii CDC-0033; assay: microbe, parasite or virus in culture; format: cell-based; details: Acinetobacter baumannii, CDC0033, read-out: MIC, A. baumannii CDC-0033
[5] = test system: P. aeruginosa CDC-0090; assay: microbe, parasite or virus in culture; format: cell-based; details: Pseudomonas aeruginosa, CDC0090, read-out: Minimum inhibitory concentration, P. aeruginosa CDC-0090
[6] = target: T3, PBP1a from Acinetobacter baumannii (ATCC 19606) (Acinetobacter baumannii, UniProt A0ABX6CK30); assay: Bocillin-FL fluorescence polarization competition binding, A. baumannii PBP1a; details: fluorescence polarization competition binding assay using Bocillin-FL; read-out: A. baumannii PBP1a Potency
T3 sequence (A0ABX6CK30 1-851): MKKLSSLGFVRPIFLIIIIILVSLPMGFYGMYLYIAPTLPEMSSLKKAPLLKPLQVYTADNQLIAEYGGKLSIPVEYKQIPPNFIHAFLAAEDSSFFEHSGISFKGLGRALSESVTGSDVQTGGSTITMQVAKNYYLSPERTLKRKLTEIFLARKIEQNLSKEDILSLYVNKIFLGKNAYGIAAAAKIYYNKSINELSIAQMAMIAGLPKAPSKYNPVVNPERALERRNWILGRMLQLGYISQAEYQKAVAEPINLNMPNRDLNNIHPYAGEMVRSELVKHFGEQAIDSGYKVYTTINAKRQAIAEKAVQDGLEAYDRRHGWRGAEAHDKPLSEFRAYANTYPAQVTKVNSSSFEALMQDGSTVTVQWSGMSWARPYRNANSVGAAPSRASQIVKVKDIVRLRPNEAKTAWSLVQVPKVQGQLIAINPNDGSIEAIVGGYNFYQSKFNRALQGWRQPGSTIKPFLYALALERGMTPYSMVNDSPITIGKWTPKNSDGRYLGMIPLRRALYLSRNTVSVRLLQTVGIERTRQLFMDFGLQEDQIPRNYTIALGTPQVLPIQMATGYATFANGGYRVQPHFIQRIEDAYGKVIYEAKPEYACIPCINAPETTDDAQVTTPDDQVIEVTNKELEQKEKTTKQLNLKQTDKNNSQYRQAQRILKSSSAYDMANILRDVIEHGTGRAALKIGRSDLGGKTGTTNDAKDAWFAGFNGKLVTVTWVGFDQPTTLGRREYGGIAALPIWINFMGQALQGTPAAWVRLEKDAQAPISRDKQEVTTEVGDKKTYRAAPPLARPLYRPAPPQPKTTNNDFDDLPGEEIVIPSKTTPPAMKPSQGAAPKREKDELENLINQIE
Outline: as §1

[7] = test system: A. baumannii ATCC 17978; assay: microbe, parasite or virus in culture; format: cell-based; details: Acinetobacter baumannii, ATCC17978, read-out: MIC, A. baumannii ATCC 17978
[8] = test system: N. gonorrhoeae ATCC 49226; assay: Liquid broth MIC in Fastidious broth; details: Neisseria gonorrhoeae
[9] = read-out: Minimum Inhibitory Concentration (MIC), N. gonorrhoeae WHO L
[10] = ATCC49226, read-out: Minimum Inhibitory Concentration (MIC), N. gonorrhoeae ATCC 49226
[11] = read-out: Minimum Inhibitory Concentration, WHO L
[12] = ATCC49226, read-out: Minimum Inhibitory Concentration, ATCC 49226

T2 sequence (G3XD46 whole entry): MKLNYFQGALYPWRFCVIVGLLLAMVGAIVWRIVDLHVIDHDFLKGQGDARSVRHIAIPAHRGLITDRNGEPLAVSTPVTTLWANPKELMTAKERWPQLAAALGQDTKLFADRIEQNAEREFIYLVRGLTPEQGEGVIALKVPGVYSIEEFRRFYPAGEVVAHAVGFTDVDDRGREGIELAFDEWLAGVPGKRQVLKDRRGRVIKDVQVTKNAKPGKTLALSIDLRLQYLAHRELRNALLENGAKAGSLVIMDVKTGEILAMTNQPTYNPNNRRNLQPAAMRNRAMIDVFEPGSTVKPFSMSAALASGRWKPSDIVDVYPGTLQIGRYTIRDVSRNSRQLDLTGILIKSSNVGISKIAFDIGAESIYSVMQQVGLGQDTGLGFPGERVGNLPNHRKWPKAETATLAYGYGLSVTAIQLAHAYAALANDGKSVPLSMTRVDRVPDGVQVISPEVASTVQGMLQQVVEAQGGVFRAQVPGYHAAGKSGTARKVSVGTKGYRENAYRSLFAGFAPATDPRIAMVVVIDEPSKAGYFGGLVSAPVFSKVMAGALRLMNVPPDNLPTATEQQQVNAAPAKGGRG
T1 sequence (P0AD68 1-577): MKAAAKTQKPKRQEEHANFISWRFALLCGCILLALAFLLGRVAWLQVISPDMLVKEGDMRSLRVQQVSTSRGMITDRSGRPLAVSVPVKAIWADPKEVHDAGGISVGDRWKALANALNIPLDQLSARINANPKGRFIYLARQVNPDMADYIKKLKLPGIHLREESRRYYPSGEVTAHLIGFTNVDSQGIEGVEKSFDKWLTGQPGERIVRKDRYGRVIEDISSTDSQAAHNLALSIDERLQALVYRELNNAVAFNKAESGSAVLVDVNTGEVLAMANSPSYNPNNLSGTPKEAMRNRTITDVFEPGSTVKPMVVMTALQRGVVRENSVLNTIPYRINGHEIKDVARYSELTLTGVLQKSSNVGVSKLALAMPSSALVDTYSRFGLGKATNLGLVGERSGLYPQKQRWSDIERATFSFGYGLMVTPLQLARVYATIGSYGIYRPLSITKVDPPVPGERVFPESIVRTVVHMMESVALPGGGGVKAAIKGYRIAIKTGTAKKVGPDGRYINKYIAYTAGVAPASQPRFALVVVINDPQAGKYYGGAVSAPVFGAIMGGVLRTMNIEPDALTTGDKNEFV

| SMILES | EC50 [1] [µM] | IC50 [2] [µM] | MIC [3, 9] [µg/mL] | MIC [4] [µg/mL] | MIC [5] [µg/mL] | IC50 [6] [µM] | MIC [7] [µg/mL] | MIC [8, 10] [µg/mL] | MIC [3, 11] [µg/mL] | MIC [8, 12] [µg/mL] |
| --- | --- | --- | --- | --- | --- | --- | --- | --- | --- | --- |
| CN(CCN1CCN(C(=O)N[C@@H](C(=O)N[C@H]2Cc3ccc(F)c(C(=O)O)c3OB2O)c2cc(F)c(O)c(O)c2Cl)C(=O)C1=O)Cc1cccnc1 [Example 201, (R)-3-((R)-2-(2-chloro-5-fluoro-3,4-dihydroxyphenyl)-2-(4-(2-(methyl(pyridin-3-ylmethyl)amino)ethyl)-2,3-dioxopiperazine-1-carboxamido)acetamido)-7-fluoro-2-hydroxy-3,4-dihydro-2H-benzo[e][1,2]oxaborinine-8-carboxylic acid] | < 10 | < 10 | > 64 | 2 to 4 (≈ 2.74 to 5.47 µM) | < 1 | > 250 | < 1 | 16 to 32 (≈ 21.9 to 43.8 µM) | – | – |
| O=C(NCCCN1CCN(C(=O)NC(C(=O)N[C@H]2Cc3ccc(F)c(C(=O)O)c3OB2O)c2cc(F)c(O)c(O)c2Cl)C(=O)C1=O)c1ccccc1 (stereo partly drawn) [Example 202, (3R)-3-(2-(4-(3-benzamidopropyl)-2,3-dioxopiperazine-1-carboxamido)-2-(2-chloro-5-fluoro-3,4-dihydroxyphenyl)acetamido)-7-fluoro-2-hydroxy-3,4-dihydro-2H-benzo[e][1,2]oxaborinine-8-carboxylic acid] | < 10 | < 10 | > 64 | 8 to 16 (≈ 10.8 to 21.5 µM) | 2 to 4 (≈ 2.69 to 5.38 µM) | > 250 | < 1 | 16 to 32 (≈ 21.5 to 43 µM) | – | – |
| O=C(NCCN1CCN(C(=O)NC(C(=O)N[C@H]2Cc3ccc(F)c(C(=O)O)c3OB2O)c2cc(F)c(O)c(O)c2Cl)C1=O)c1cccc(O)c1 (stereo partly drawn) [Example 244, (3R)-3-(2-(2-chloro-5-fluoro-3,4-dihydroxyphenyl)-2-(3-(2-(3-hydroxybenzamido)ethyl)-2-oxoimidazolidine-1-carboxamido)acetamido)-7-fluoro-2-hydroxy-3,4-dihydro-2H-benzo[e][1,2]oxaborinine-8-carboxylic acid] | 10 to 50 | < 10 | > 64 | 2 to 4 (≈ 2.79 to 5.57 µM) | < 1 | > 250 | < 1 | > 64 | – | – |
| O=C(CN1CCN(C(=O)NC(C(=O)N[C@H]2Cc3ccc(F)c(C(=O)O)c3OB2O)c2cc(F)c(O)c(O)c2Cl)C(=O)C1=O)Nc1ccccc1 (stereo partly drawn) [Example 232, (3R)-3-(2-(2-chloro-5-fluoro-3,4-dihydroxyphenyl)-2-(2,3-dioxo-4-(2-oxo-2-(phenylamino)ethyl)piperazine-1-carboxamido)acetamido)-7-fluoro-2-hydroxy-3,4-dihydro-2H-benzo[e][1,2]oxaborinine-8-carboxylic acid] | < 10 | < 10 | > 64 | 32 to 64 (≈ 44.7 to 89.4 µM) | 2 to 4 (≈ 2.79 to 5.59 µM) | > 250 | 2 to 4 (≈ 2.79 to 5.59 µM) | 16 to 32 (≈ 22.4 to 44.7 µM) | – | – |
| O=C(CN1CCN(C(=O)NC(C(=O)N[C@H]2Cc3ccc(F)c(C(=O)O)c3OB2O)c2cc(F)c(O)c(O)c2Cl)C(=O)C1=O)Nc1ccc(O)cc1 (stereo partly drawn) [Example 230, (3R)-3-(2-(2-chloro-5-fluoro-3,4-dihydroxyphenyl)-2-(4-(2-((4-hydroxyphenyl)amino)-2-oxoethyl)-2,3-dioxopiperazine-1-carboxamido)acetamido)-7-fluoro-2-hydroxy-3,4-dihydro-2H-benzo[e][1,2]oxaborinine-8-carboxylic acid] | < 10 | < 10 | 16 to 32 (≈ 21.9 to 43.7 µM) | 2 to 4 (≈ 2.73 to 5.47 µM) | 2 to 4 (≈ 2.73 to 5.47 µM) | > 250 | < 1 | 4 to 8 (≈ 5.47 to 10.9 µM) | – | – |
| O=C(NCCCS(=O)(=O)N1CCN(C(=O)NC(C(=O)N[C@H]2Cc3ccc(F)c(C(=O)O)c3OB2O)c2cc(F)c(O)c(O)c2Cl)C1=O)c1nccs1 (stereo partly drawn) [Example 274, (3R)-3-(2-(2-chloro-5-fluoro-3,4-dihydroxyphenyl)-2-(2-oxo-3-((3-(thiazole-2-carboxamido)propyl)sulfonyl)imidazolidine-1-carboxamido)acetamido)-7-fluoro-2-hydroxy-3,4-dihydro-2H-benzo[e][1,2]oxaborinine-8-carboxylic acid] | < 10 | < 10 | – | 8 to 16 (≈ 10.2 to 20.3 µM) | 2 to 4 (≈ 2.54 to 5.08 µM) | > 250 | < 1 | – | > 64 | 16 to 32 (≈ 20.3 to 40.7 µM) |
| O=C(NCCN1CCN(C(=O)NC(C(=O)N[C@H]2Cc3ccc(F)c(C(=O)O)c3OB2O)c2cc(F)c(O)c(O)c2Cl)C1=O)c1nccs1 (stereo partly drawn) [Example 247, (3R)-3-(2-(2-chloro-5-fluoro-3,4-dihydroxyphenyl)-2-(2-oxo-3-(2-(thiazole-2-carboxamido)ethyl)imidazolidine-1-carboxamido)acetamido)-7-fluoro-2-hydroxy-3,4-dihydro-2H-benzo[e][1,2]oxaborinine-8-carboxylic acid] | 10 to 50 | < 10 | – | 2 to 4 (≈ 2.82 to 5.64 µM) | 2 to 4 (≈ 2.82 to 5.64 µM) | > 250 | < 1 | – | > 64 | 16 to 32 (≈ 22.6 to 45.1 µM) |
| CN(CCN1CCN(C(=O)N[C@@H](C(=O)N[C@H]2Cc3ccc(F)c(C(=O)O)c3OB2O)c2cc(F)c(O)c(O)c2Cl)C(=O)C1=O)Cc1ccc(C(N)=O)cc1 [Example 226, (R)-3-((R)-2-(4-(2-((4-carbamoylbenzyl)(methyl)amino)ethyl)-2,3-dioxopiperazine-1-carboxamido)-2-(2-chloro-5-fluoro-3,4-dihydroxyphenyl)acetamido)-7-fluoro-2-hydroxy-3,4-dihydro-2H-benzo[e][1,2]oxaborinine-8-carboxylic acid] | < 10 | < 10 | > 64 | 2 to 4 (≈ 2.59 to 5.18 µM) | < 1 | > 250 | < 1 | 16 to 32 (≈ 20.7 to 41.4 µM) | – | – |
| O=C(NCCCS(=O)(=O)N1CCN(C(=O)NC(C(=O)N[C@H]2Cc3ccc(F)c(C(=O)O)c3OB2O)c2cc(F)c(O)c(O)c2Cl)C1=O)Nc1ccc(O)cc1 (stereo partly drawn) [Example 276, (3R)-3-(2-(2-chloro-5-fluoro-3,4-dihydroxyphenyl)-2-(3-((3-(3-(4-hydroxyphenyl)ureido)propyl)sulfonyl)-2-oxoimidazolidine-1-carboxamido)acetamido)-7-fluoro-2-hydroxy-3,4-dihydro-2H-benzo[e][1,2]oxaborinine-8-carboxylic acid] | < 10 | < 10 | – | 8 to 16 (≈ 9.87 to 19.7 µM) | < 1 | > 250 | < 1 | – | > 64 | 16 to 32 (≈ 19.7 to 39.5 µM) |
| O=C(NCCN1CCN(C(=O)NC(C(=O)N[C@H]2Cc3ccc(F)c(C(=O)O)c3OB2O)c2cc(F)c(O)c(O)c2Cl)C1=O)Nc1cccnc1 (stereo partly drawn) [Example 251, (3R)-3-(2-(2-chloro-5-fluoro-3,4-dihydroxyphenyl)-2-(2-oxo-3-(2-(3-(pyridin-3-yl)ureido)ethyl)imidazolidine-1-carboxamido)acetamido)-7-fluoro-2-hydroxy-3,4-dihydro-2H-benzo[e][1,2]oxaborinine-8-carboxylic acid] | < 10 | < 10 | – | 2 to 4 (≈ 2.79 to 5.57 µM) | 2 to 4 (≈ 2.79 to 5.57 µM) | > 250 | < 1 | – | > 64 | 16 to 32 (≈ 22.3 to 44.6 µM) |
